# Tests used:
# PTPN2 (i.e., TC-PTP) = molecular target: T1, PTPN2 (i.e., TC-PTP) (Homo sapiens, UniProt P17706); test: Phosphatase activity assay (DiFMUP substrate), PTPN2; type: biochemical; details: compounds binned ≤1 uM or >1 uM
# T1 sequence (P17706 1-415): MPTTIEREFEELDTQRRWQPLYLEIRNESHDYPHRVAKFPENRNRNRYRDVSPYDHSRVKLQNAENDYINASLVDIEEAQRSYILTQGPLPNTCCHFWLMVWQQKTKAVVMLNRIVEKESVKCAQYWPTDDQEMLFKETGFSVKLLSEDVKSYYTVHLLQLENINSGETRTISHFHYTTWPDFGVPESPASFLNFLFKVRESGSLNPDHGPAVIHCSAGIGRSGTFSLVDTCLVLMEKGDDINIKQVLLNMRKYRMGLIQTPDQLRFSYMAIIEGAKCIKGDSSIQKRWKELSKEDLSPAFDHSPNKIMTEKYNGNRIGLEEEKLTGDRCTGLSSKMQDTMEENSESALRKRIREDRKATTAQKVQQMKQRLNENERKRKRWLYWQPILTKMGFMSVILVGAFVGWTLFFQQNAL
# Procedure, shortened: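 Continuous fluorogenic readout of DiFMUP dephosphorylation at room temperature, substrate set at Km for each phosphatase (about 45 μM in the PTPN2 assay). The buffer contains 1 mM DTT and 0.001% Tween-20, pH 7.5.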
# PTPN1 (i.e., PTP1B) = molecular target: T2, PTPN1 (i.e., PTP1B) (Homo sapiens, UniProt P18031); test: Phosphatase activity assay (DiFMUP substrate), PTP1B; type: biochemical; details: compounds binned ≤1 uM or >1 uM
# T2 sequence (P18031 1-435): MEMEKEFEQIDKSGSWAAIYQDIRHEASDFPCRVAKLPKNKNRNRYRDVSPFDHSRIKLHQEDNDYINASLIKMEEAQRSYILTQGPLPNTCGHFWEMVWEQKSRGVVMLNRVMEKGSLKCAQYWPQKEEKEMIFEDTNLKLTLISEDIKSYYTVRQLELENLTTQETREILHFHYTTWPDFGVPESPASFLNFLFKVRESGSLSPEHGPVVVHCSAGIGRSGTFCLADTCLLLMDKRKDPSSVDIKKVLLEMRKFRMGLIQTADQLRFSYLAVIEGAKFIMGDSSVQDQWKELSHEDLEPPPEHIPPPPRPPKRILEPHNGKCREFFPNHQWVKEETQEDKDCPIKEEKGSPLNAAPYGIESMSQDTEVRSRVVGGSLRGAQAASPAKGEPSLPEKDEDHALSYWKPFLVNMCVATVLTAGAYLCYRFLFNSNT
# Procedure, shortened: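 First, serially diluted inhibitor is mixed about 2 minutes with enzyme in pH 7.5 HEPES/NaCl/EDTA/DTT/Tween-20 buffer. Next, DiFMUP is added at the enzyme's Km, approximately 45 μM for PTPN2. Finally, DiFMU appearance is read continuously at room temperature and rates are fitted for IC50.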
"IC50 (PTPN2 (i.e., TC-PTP))","IC50 (PTPN1 (i.e., PTP1B))",Compound
≤ 1 µM,≤ 1 µM,"O=C1CN(c2c(O)ccc(C3=CC(CC4CC4)NC3)c2F)S(=O)(=O)N1 (stereo not drawn) [Compound 522, 5-(3-(5-(cyclopropylmethyl)-2,5-dihydro-1H-pyrrol-3-yl)-2-fluoro-6-hydroxyphenyl)-1,2,5-thiadiazolidin-3-one 1,1-dioxide]"
≤ 1 µM,≤ 1 µM,"CCCCC1C=C(c2ccc(O)c(N3CC(=O)NS3(=O)=O)c2F)CN1 (stereo not drawn) [Compound 523, 5-(3-(5-butyl-2,5-dihydro-1H-pyrrol-3-yl)-2-fluoro-6-hydroxyphenyl)-1,2,5-thiadiazolidin-3-one 1,1-dioxide]"
≤ 1 µM,≤ 1 µM,"O=C1CN(c2c(O)ccc(-c3cc(CC(F)F)n[nH]3)c2F)S(=O)(=O)N1 [Compound 524, 5-(3-(3-(2,2-difluoroethyl)-1H-pyrazol-5-yl)-2-fluoro-6-hydroxyphenyl)-1,2,5-thiadiazolidin-3-one 1,1-dioxide]"
≤ 1 µM,≤ 1 µM,"O=C1CN(c2c(O)ccc(-c3cnn(CC(F)F)c3)c2F)S(=O)(=O)N1 [Compound 525, 5-(3-(1-(2,2-difluoroethyl)-1H-pyrazol-4-yl)-2-fluoro-6-hydroxyphenyl)-1,2,5-thiadiazolidin-3-one 1,1-dioxide]"
≤ 1 µM,≤ 1 µM,"O=C1CN(c2c(O)ccc(-c3cc(C4(C(F)F)CC4)n[nH]3)c2F)S(=O)(=O)N1 [Compound 526, 5-(3-(3-(1-(difluoromethyl)cyclopropyl)-1H-pyrazol-5-yl)-2-fluoro-6-hydroxyphenyl)-1,2,5-thiadiazolidin-3-one 1,1-dioxide]"
≤ 1 µM,≤ 1 µM,"Cn1cc(-c2ccc(O)c(N3CC(=O)NS3(=O)=O)c2F)nc1O [Compound 527, 5-(2-fluoro-6-hydroxy-3-(2-hydroxy-1-methyl-1H-imidazol-4-yl)phenyl)-1,2,5-thiadiazolidin-3-one 1,1-dioxide]"
≤ 1 µM,≤ 1 µM,"Cn1nc(-c2ccc(O)c(N3CC(=O)NS3(=O)=O)c2F)cc1N [Compound 529, 5-(3-(5-amino-1-methyl-1H-pyrazol-3-yl)-2-fluoro-6-hydroxyphenyl)-1,2,5-thiadiazolidin-3-one 1,1-dioxide]"
≤ 1 µM,≤ 1 µM,"O=C1CN(c2c(O)ccc(-c3cn(CCC(F)F)nc3F)c2F)S(=O)(=O)N1 [Compound 530, 5-(3-(1-(3,3-difluoropropyl)-3-fluoro-1H-pyrazol-4-yl)-2-fluoro-6-hydroxyphenyl)-1,2,5-thiadiazolidin-3-one 1,1-dioxide]"
≤ 1 µM,≤ 1 µM,"CC(C)CC1C=C(c2ccc(O)c(N3CC(=O)NS3(=O)=O)c2F)CN1 (stereo not drawn) [Compound 531, 5-(2-fluoro-6-hydroxy-3-(5-isobutyl-2,5-dihydro-1H-pyrrol-3-yl)phenyl)-1,2,5-thiadiazolidin-3-one 1,1-dioxide]"
≤ 1 µM,≤ 1 µM,"CN(C)C(=O)n1cc(-c2ccc(O)c(N3CC(=O)NS3(=O)=O)c2F)cn1 [Compound 532, 4-(3-(1,1-dioxido-4-oxo-1,2,5-thiadiazolidin-2-yl)-2-fluoro-4-hydroxyphenyl)-N,N-dimethyl-1H-pyrazole-1-carboxamide]"
≤ 1 µM,≤ 1 µM,"NC(=O)C1CC1c1cc(-c2ccc(O)c(N3CC(=O)NS3(=O)=O)c2F)[nH]n1 (stereo not drawn) [Compound 533, 2-(5-(3-(1,1-dioxido-4-oxo-1,2,5-thiadiazolidin-2-yl)-2-fluoro-4-hydroxyphenyl)-1H-pyrazol-3-yl)cyclopropane-1-carboxamide]"
≤ 1 µM,≤ 1 µM,"O=C1CN(c2c(O)ccc(C3=CCN(CCC(F)F)C3)c2F)S(=O)(=O)N1 [Compound 534, 5-(3-(1-(3,3-difluoropropyl)-2,5-dihydro-1H-pyrrol-3-yl)-2-fluoro-6-hydroxyphenyl)-1,2,5-thiadiazolidin-3-one 1,1-dioxide]"
